Here are results for twelve compounds from US9932331B2, “Phenyl tetrahydroisoquinoline compound substituted with heteroaryl” (TAISHO PHARMACEUTICAL CO., LTD, priority 2014, dated 2018).

One may read the IC50 as the concentration needed to halve the response being measured.

Where a name gives a salt, the structure may show the parent alone.

The subject of experiment [1] is SD rat. Briefly: 32P-phosphate oral loading test using SD rat (phosphorus absorption inhibitory effect). The experiment is classed as in vivo. Particulars: Rattus norvegicus, 0.5 h, SD male rats, plasma radioactivity 30 minutes after 32P-phosphate solution, vs control group, read-out: Rate of inhibition of phosphate absorption; for inhibition in vivo at 3 mg/kg: oral dose 3 mg/kg. As to the method:
Phosphorus Absorption Inhibitory Effect of the Compound of the Present Invention in ^32P-Phosphate Oral Loading Test Using SD Rat
8-week-old SD male rats (Japan SLC, Inc.) were used as laboratory animals. Each test compound was suspended or dissolved at a concentration of 0.2 mg/mL or 0.6 mg/mL in Japanese Pharmacopoeia water for injection (manufactured by Hikari Pharmaceutical Co., Ltd.) and orally administered to each rat at a dose of 5 ml/kg body weight. Japanese Pharmacopoeia water for injection was administered at the same dose as above to a control group. 5 minutes after the administration of the test compound or water for injection, a phosphate solution (1.3 mM NaH2PO4) containing 32P-phosphate (PerkinElmer Inc.) was administered thereto at a dose of 5 ml/kg. 30 minutes after the administration of the phosphate solution, blood was collected from the tail vein, and the blood sample was immediately mixed with EDTA-2K (manufactured by Dojindo Laboratories). Then, the mixture was centrifuged at 3000 rpm at 4° C. for 10 minutes to recover plasma.
The radioactivity in 100 μL of the plasma was measured using a liquid scintillation counter and used as a phosphate absorption count. The radioactivity in the plasma of the control group was used as a control, and the rate of inhibition of phosphate absorption was determined according to the following expression: Rate of inhibition of phosphate absorption (%)=(1−Phosphate absorption count of the test compound administration group/Phosphate absorption count of the control group)×100 (2) Results

Experiment [2] concerns the target T1, human NHE3 (Homo sapiens, UniProt P48764).
T1 sequence (P48764 26-834): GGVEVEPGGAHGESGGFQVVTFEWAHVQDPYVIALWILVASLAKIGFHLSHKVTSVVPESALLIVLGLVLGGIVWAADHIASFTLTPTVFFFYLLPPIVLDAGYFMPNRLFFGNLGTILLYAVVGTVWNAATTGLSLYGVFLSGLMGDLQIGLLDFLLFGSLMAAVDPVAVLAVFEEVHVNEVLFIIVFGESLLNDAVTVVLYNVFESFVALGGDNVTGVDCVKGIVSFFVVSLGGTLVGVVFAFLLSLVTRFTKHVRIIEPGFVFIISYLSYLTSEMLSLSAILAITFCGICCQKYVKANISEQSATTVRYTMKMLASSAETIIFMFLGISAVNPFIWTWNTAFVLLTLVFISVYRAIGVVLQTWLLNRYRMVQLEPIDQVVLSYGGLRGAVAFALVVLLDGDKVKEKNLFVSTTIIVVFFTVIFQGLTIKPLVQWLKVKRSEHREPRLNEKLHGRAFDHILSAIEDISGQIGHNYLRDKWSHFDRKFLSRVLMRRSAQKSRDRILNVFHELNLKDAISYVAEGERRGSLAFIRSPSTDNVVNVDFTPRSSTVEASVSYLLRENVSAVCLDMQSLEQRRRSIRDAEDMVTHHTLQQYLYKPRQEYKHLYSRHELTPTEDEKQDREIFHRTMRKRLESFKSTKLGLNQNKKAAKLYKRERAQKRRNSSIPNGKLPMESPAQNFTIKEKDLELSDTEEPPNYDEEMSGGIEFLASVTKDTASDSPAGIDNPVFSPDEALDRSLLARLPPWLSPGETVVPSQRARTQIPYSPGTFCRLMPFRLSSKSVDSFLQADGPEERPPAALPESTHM
Briefly: NHE3 inhibition test (recovery of intracellular pH in cell line stably expressing human NHE3). To be noted: OK cells deficient in endogenous NHE stably expressing human NHE3; BCECF fluorescence, initial rate of pH recovery; read-out: human NHE3 inhibitory activity IC50. The experiment is classed as cell-based. The gist of the method: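 Opossum kidney cells lacking endogenous NHE, stably expressing human NHE3, loaded with BCECF-AM and acid-loaded by NH4Cl washout. Compound in Na-free buffer, then Na-containing buffer (pH 7.4) added; initial pH-recovery rate by BCECF fluorescence, IC50 versus no-compound recovery.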

For `CN1Cc2c(Cl)cc(Cl)cc2[C@H](c2cccc(-c3cc(NCCOCCOCCOCCNC(=O)NCCCCNC(=O)NCCOCCOCCOCCNc4cc(-c5cccc([C@@H]6CN(C)Cc7c(Cl)cc(Cl)cc76)c5)ncn4)ncn3)c2)C1` [Example 7-40, 1,1′-Butane-1,4-diylbis(3-{2-[2-(2-{2-[(6-{3-[(4S)-6,8-dichloro-2-methyl-1,2,3,4-tetrahydroisoquinolin-4-yl]phenyl}pyrimidin-4-yl)amino]ethoxy}ethoxy)ethoxy]ethyl}urea) trifluoroacetate], the inhibition in vivo at 3 mg/kg in experiment [1] was 28%. For the same compound, the IC50 in experiment [2] stood at 11 nM.
Taken in the same sequence, the figures for `CN1Cc2c(Cl)cc(Cl)cc2[C@H](c2cccc(-c3cn(CCOCCOCCOCCNC(=O)[C@@H](O)[C@H](O)[C@H](O)[C@@H](O)C(=O)NCCOCCOCCOCCn4cc(-c5cccc([C@@H]6CN(C)Cc7c(Cl)cc(Cl)cc76)c5)nn4)nn3)c2)C1` [Example 6-8, (2R,3S,4R,5S)—N,N′-Bis[2-(2-{2-[2-(4-{3-[(4S)-6,8-dichloro-2-methyl-1,2,3,4-tetrahydroisoquinolin-4-yl]phenyl}-1H-1,2,3-triazol-1-yl)ethoxy]ethoxy}ethoxy)ethyl]-2,3,4,5-tetrahydroxyhexanediamide hydrochloride] were 34% and 0.8 nM.
Regarding `CN1Cc2c(Cl)cc(Cl)cc2[C@H](c2cccc(-c3cn(CCOCCOCCOCCNC(=O)Nc4ccc(NC(=O)NCCOCCOCCOCCn5cc(-c6cccc([C@@H]7CN(C)Cc8c(Cl)cc(Cl)cc87)c6)nn5)cc4)nn3)c2)C1` [Example 7-24, 1,1′-Benzene-1,4-diylbis{3-[2-(2-{2-[2-(4-{3-[(4S)-6,8-dichloro-2-methyl-1,2,3,4-tetrahydroisoquinolin-4-yl]phenyl}-1H-1,2,3-triazol-1-yl)ethoxy]ethoxy}ethoxy)ethyl]urea}hydrochloride], the inhibition in vivo at 3 mg/kg in experiment [1] amounted to 31%. Also, the IC50 in experiment [2] was 5.6 nM.
As to `CN1Cc2c(Cl)cc(Cl)cc2[C@H](c2cccc(-c3cncc(NCCOCCOCCOCCNC(=O)[C@H](O)[C@@H](O)C(=O)NCCOCCOCCOCCNc4cncc(-c5cccc([C@@H]6CN(C)Cc7c(Cl)cc(Cl)cc76)c5)n4)n3)c2)C1` [Example 8-20, (2R,3R)-N,N′-Bis{2-[2-(2-{2-[(6-{3-[(4S)-6,8-dichloro-2-methyl-1,2,3,4-tetrahydroisoquinolin-4-yl]phenyl}pyrazin-2-yl)amino]ethoxy}ethoxy)ethoxy]ethyl}-2,3-dihydroxybutanediamide tetrahydrochloride], in experiment [1], the inhibition in vivo at 3 mg/kg came to 37%. For the same compound, the IC50 in experiment [2] stood at 3.3 nM.
Taken in the same sequence, the figures for `CN1Cc2c(Cl)cc(Cl)cc2[C@H](c2cccc(-c3cc(NCCOCCOCCOCCNC(=O)NCCCCNC(=O)NCCOCCOCCOCCNc4cnnc(-c5cccc([C@@H]6CN(C)Cc7c(Cl)cc(Cl)cc76)c5)c4)cnn3)c2)C1` [Example 7-19, 1,1′-Butane-1,4-diylbis(3-{2-[2-(2-{2-[(6-{3-[(4S)-6,8-dichloro-2-methyl-1,2,3,4-tetrahydroisoquinolin-4-yl]phenyl}pyridazin-4-yl)amino]ethoxy}ethoxy)ethoxy]ethyl}urea) hexahydrochloride] were 19% and 17.7 nM.
In the case of `CN1Cc2c(Cl)cc(Cl)cc2[C@H](c2cccc(-c3cn(CCOCCOCCOCCNC(=O)NCCCCNC(=O)NCCOCCOCCOCCn4cc(-c5cccc([C@@H]6CN(C)Cc7c(Cl)cc(Cl)cc76)c5)nn4)nn3)c2)C1` [Example 6-2, 1,1′-Butane-1,4-diylbis {3-[2-(2-{2-[2-(4-{3-[(4S)-6,8-dichloro-2-methyl-1,2,3,4-tetrahydroisoquinolin-4-yl]phenyl}-1H-1,2,3-triazol-1-yl)ethoxy]ethoxy}ethoxy)ethyl]urea}hydrochloride], the inhibition in vivo at 1 mg/kg in experiment [1] (oral dose 1 mg/kg) is 47%. The IC50 in experiment [2] was found to be 5.7 nM.
`CN1Cc2c(Cl)cc(Cl)cc2[C@H](c2cccc(-c3ccc(C(=O)NCCOCCOCCNC(=O)NCCCCNC(=O)NCCOCCOCCNC(=O)c4ccc(-c5cccc([C@@H]6CN(C)Cc7c(Cl)cc(Cl)cc76)c5)cn4)nc3)c2)C1` [Example 7-18, N,N′-(10,17-Dioxo-3,6,21,24-tetraoxa-9,11,16,18-tetraazahexacosane-1,26-diyl)bis(5-{3-[(4S)-6,8-dichloro-2-methyl-1,2,3,4-tetrahydroisoquinolin-4-yl]phenyl}pyridine-2-carboxamide) hydrochloride]: the inhibition in vivo at 3 mg/kg in experiment [1] came out at 49%. Further, in experiment [2], the IC50 was 5.6 nM.
For `CN1Cc2c(Cl)cc(Cl)cc2[C@H](c2cccc(-c3cc(NCCOCCOCCNC(=O)[C@H](O)[C@@H](O)C(=O)NCCOCCOCCNc4cc(-c5cccc([C@@H]6CN(C)Cc7c(Cl)cc(Cl)cc76)c5)ncn4)ncn3)c2)C1` [Example 8-8, (2R,3R)-N,N′-Bis[2-(2-{2-[(6-{3-[(4S)-6,8-dichloro-2-methyl-1,2,3,4-tetrahydroisoquinolin-4-yl]phenyl}pyrimidin-4-yl)amino]ethoxy}ethoxy)ethyl]-2,3-dihydroxybutanediamide hydrochloride], the inhibition in vivo at 3 mg/kg in experiment [1] came out at 39%. For the same compound, the IC50 in experiment [2] stood at 6.2 nM.
Taken in the same sequence, the figures for `CN1Cc2c(Cl)cc(Cl)cc2[C@H](c2cccc(-c3cncc(NCCOCCOCCOCCNC(=O)NCCCCNC(=O)NCCOCCOCCOCCNc4cncc(-c5cccc([C@@H]6CN(C)Cc7c(Cl)cc(Cl)cc76)c5)n4)n3)c2)C1` [Example 7-33, 1,1′-Butane-1,4-diylbis(3-{2-[2-(2-{2-[(6-{3-[(4S)-6,8-dichloro-2-methyl-1,2,3,4-tetrahydroisoquinolin-4-yl]phenyl}pyrazin-2-yl)amino]ethoxy}ethoxy)ethoxy]ethyl}urea) hexahydrochloride] were -1% and 8.6 nM.
Taken in the same sequence, the figures for `CN1Cc2c(Cl)cc(Cl)cc2[C@H](c2cccc(-c3cn(CCOCCOCCNC(=O)Nc4ccc(NC(=O)NCCOCCOCCn5cc(-c6cccc([C@@H]7CN(C)Cc8c(Cl)cc(Cl)cc87)c6)nn5)cc4)nn3)c2)C1` [Example 6-5, 1,1′-Benzene-1,4-diylbis[3-(2-{2-[2-(4-{3-[(4S)-6,8-dichloro-2-methyl-1,2,3,4-tetrahydroisoquinolin-4-yl]phenyl}-1H-1,2,3-triazol-1-yl)ethoxy]ethoxy}ethyl)urea]hydrochloride] were 46% and 9.5 nM.
Taken in the same sequence, the figures for `CN1Cc2c(Cl)cc(Cl)cc2[C@H](c2cccc(-c3cncc(NCCOCCOCCNC(=O)CCC(=O)NCCOCCOCCNc4cncc(-c5cccc([C@@H]6CN(C)Cc7c(Cl)cc(Cl)cc76)c5)n4)n3)c2)C1` [Example 8-6, N,N′-Bis[2-(2-{2-[(6-{3-[(4S)-6,8-dichloro-2-methyl-1,2,3,4-tetrahydroisoquinolin-4-yl]phenyl}pyrazin-2-yl)amino]ethoxy}ethoxy)ethyl]butanediamide pentahydrochloride] were 26% and 15.5 nM.
Take `CN1Cc2c(Cl)cc(Cl)cc2[C@H](c2cccc(-c3nnn(CCOCCOCCOCCOCCNC(=O)NCCCCNC(=O)NCCOCCOCCOCCOCCn4nnc(-c5cccc([C@@H]6CN(C)Cc7c(Cl)cc(Cl)cc76)c5)n4)n3)c2)C1` [Example 7-29, 1,1′-Butane-1,4-diylbis {3-[14-(5-{3-[(4S)-6,8-dichloro-2-methyl-1,2,3,4-tetrahydroisoquinolin-4-yl]phenyl}-2H-tetrazol-2-yl)-3,6,9,12-tetraoxatetradec-1-yl]urea}hydrochloride]: the inhibition in vivo at 3 mg/kg in experiment [1] is 10%. The IC50 in experiment [2] stood at 6.9 nM.
